Key:
[1] = tested on: MV-4-11 acute myeloid leukemia xenograft; test: MV-4-11 xenograft efficacy model; assay type: in vivo, mice; conditions: 25 mg/kg/day orally for 14 days in combination with Leunase 1000 U/kg
Description: The MV-4-11 acute myeloid leukemia xenograft model was performed in compliance with all the laws, regulations, and guidelines of the National Institutes of Health (NIH) and with the approval of the Animal Care and Use Committee of Crown Bioscience (Taicang, China), an AAALAC accredited facility. Food and water were provided ad libitum. […] Female NOD/SCID (6-9 weeks old; Vital River Laboratories Research Models and Services (Beijing, China)) were inoculated subcutaneously right front flank region with five million cells in Dulbecco's Phosphate Buffered Saline:Matrigel (1:1), using a 27-gauge needle and syringe. When tumor burdens reached 150 mm^3 on average on day 7, mice were randomly assigned into groups such that the mean tumor burden for all groups was within 10% of the overall mean tumor burden for the study population. Groups were treated on days 7-21 as follows: vehicle control (dosed orally and IP to mimic combination group (n=10); Compound 16 dosed orally at 25 mg/kg/day (n=10); Leunase (Kyowa Kirin, Japan) dosed IP at 1000 U/kg/day (n=10); Leunase (Kyowa Kirin, Japan) dosed IP at 1000 U/kg/day (n=10) and Compound 16 dosed orally at 25 mg/kg/day (n=10). Tumor volume and body weight were measured three times per week. Tumor burden (mg) was estimated from caliper measurements by the formula: tumor burden (mg=mm^3)=(length×width^2)/2.

[2] = target: PERK oligomers in HEK-293 cells (Homo sapiens (Human), UniProt Q9NZJ5); test: Detection of PERK oligomerization using NanoBRET; assay type: cell-based; conditions: read-out: EC50 of stimulation of the formation of PERK oligomers
Description: Constructs for BRET were built using the NanoBRET™ Flexi® PPI Starter System (Promega, Madison, WI). The full-length PERK ORF was obtained from Genscript (Piscataway, NJ). HEK-293 cells (catalog #CRL-1573) were obtained from the American Type Culture Collection (ATTC, Manassas, VA). Cells were grown in MEM medium supplemented with 10% heat-inactivated fetal bovine serum (Invitrogen, Carlsbad, CA) and 1% Penicillin/Streptomycin/L-Glutamine at 37° C., 5% CO2, and 95% humidity. For BRET assays, cells were seeded at a density of 40,000 cells/mL in culture medium in 6-well plates and allowed to attach and recover. Cells were transfected with C-terminally tagged PERK-NLuc and C-terminally tagged PERK-Halo using Lipofectamine LTX (Thermo, Waltham, MA) and allowed to express proteins overnight at 37° C., 5% CO2, and 95% humidity. Cells were then detached from culture dishes using 0.05% trypsin-EDTA, collected, and diluted in assay medium consisting of Opti-MEM® I Reduced Serum Medium supplemented with 4% FBS (Thermo) to 22,000 cells/mL. Cells were dispensed into 96-well cell culture plates and HaloTag® NanoBRET™ 618 Ligand (Promega) was added to a final concentration of 100 nM. […] Donor ([…]) and acceptor (618) emissions were measured on a Synergy Neo2 Multi-Mode Reader (BioTek, Winooski, VT) within 10 min of substrate addition. […]

CCRF-CEM leukemia cells = test: CCRF-CEM ASNase cell proliferation assay, phenotypic assay for cellular inhibition of GCN2; assay type: cell-based; conditions: Homo sapiens; ASNase treated CCRF-CEM cells, 1 mU/mL ASNase, 72 h
Method in brief: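 Cells were seeded at ten thousand per well in RPMI-1640 with 10% heat-inactivated FBS and treated in triplicate with serially diluted compound plus 1 mU/mL ASNase for 72 h at 37 °C, 5% CO2. Resazurin was then added for 6 h, with fluorescence read at ex 540/em 600 nm to derive IC50 values.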

[3] = tested on: phospho-GCN2 (Thr899) in HCT116 colorectal cancer cells; test: HCT116 amino acid starved (-AA) phospho-GCN2 assay (Western blot); assay type: cell-based; conditions: Homo sapiens, HCT-116, 4 h, read-out: HCT116-AA pGCN2 Western Blot
Method in brief: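 HCT116 cells switched to amino-acid-free EBSS (10% dialyzed FBS, 5.5 mM glucose, vitamins) with serial compound dilutions for 4 h at 37° C. Lysates Western blotted for phospho-GCN2 (Thr899), total GCN2, ATF4 and beta-actin; IC50 values derived from quantified bands.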

Sequence of PERK oligomers in HEK-293 cells (Q9NZJ5 30-1116): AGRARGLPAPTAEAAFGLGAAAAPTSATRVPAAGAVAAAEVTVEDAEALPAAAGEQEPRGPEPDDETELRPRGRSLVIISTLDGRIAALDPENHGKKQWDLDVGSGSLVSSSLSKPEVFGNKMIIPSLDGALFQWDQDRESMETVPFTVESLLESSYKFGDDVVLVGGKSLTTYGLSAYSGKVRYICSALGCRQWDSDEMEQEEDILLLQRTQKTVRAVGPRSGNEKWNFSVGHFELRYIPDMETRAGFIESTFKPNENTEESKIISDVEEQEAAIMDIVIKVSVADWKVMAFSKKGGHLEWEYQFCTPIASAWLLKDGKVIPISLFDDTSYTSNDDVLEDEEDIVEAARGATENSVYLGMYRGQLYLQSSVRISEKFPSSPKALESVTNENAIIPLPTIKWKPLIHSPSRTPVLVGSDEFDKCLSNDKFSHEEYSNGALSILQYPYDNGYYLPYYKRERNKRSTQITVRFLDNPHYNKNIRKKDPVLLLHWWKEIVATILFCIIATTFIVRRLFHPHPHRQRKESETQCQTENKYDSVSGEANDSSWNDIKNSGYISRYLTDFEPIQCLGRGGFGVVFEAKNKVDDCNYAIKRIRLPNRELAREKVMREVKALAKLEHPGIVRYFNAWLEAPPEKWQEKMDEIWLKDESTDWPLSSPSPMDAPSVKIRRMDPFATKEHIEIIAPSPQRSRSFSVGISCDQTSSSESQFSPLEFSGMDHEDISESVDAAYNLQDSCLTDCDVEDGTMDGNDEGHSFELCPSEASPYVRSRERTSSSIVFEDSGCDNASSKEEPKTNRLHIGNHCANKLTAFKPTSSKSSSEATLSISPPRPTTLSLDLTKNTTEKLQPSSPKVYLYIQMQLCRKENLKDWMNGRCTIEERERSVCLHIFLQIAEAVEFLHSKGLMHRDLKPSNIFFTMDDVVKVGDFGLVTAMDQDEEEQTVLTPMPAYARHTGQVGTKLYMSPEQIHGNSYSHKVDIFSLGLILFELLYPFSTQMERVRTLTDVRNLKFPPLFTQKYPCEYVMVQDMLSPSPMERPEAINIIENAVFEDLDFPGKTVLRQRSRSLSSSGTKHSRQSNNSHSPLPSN
Sequence of PERK oligomers in HEK-293 cells (Q9NZJ5 30-1116): as above

CNc1ncc2cc(-c3cccc(NS(=O)(=O)c4cc(Cl)cnc4OC)c3F)c(NC)nc2n1 [Compound 16]
effect on MV-4-11 tumor growth [1]: tumor regression | EC50 [2]: 270 nM | IC50 (CCRF-CEM leukemia cells): ≤ 100 nM | IC50 [3]: ≤ 100 nM
